Assay results: patent US20250136601A1 (priority 2022, published 2025)
“And” between values parts separate entries of the source, which are not always exact repeats. Equal entries are not always repeated. Where two headings read alike, the source gives them in different places.

Key:
[1] = target: T1, 5-HT2A receptor (Homo sapiens (Human), UniProt P28223); assay: cell-based; type: cell-based; conditions: for Emax: HEK-293T, read-out: β-arrestin2 signaling agonistic activity (percentage in parentheses); for Gq signaling agonistic activity (percentage in parentheses): value in parentheses; for pathway selectivity: β-arrestin2 recruitment versus G protein signaling: without activating the G protein signaling pathway
Experimental: On the second day, the confluent cells from a 6 cm culture dish were digested and reseeded into a 96-well plate at a volume of 100 μL of culture medium per well. On the third day, the drugs were added for testing. The 96-well plate was taken out from the cell incubator to decant the culture medium. 40 μL of the substrate coelenterazine 400a (final concentration 5 μM) was added to each well, and then 20 μL of different drugs were added sequentially from left to right, ensuring that the final concentration of the drug decreased gradually from bottom to top, with two replicates per treatment. Finally, the prepared samples were loaded on a plate reader for signal quantification. The readout values reflected the recruitment of β-arrestin2 to the membrane or the dissociation of G protein trimer. The former indicated the degree of activation of the downstream β-arrestin2 signaling pathway mediated by the 5-HT2A receptor, and the latter indicated the degree of activation of the downstream G protein signaling pathway mediated by the 5-HT2A receptor.

[2] = target: T1, 5-HT2A receptor; assay: radioligand competitive binding assay, [3H]-LSD, 293T membranes
[3] = in vivo; conditions: male, C57, mouse, ip
Experimental: (§1) The concentration of the compound in mouse plasma was determined using LC-MS/MS, and the relevant pharmacokinetic parameters were calculated to investigate the pharmacokinetic characteristics of the compound in mice.
(§2) Experimental design: 60 male C57 mice (purchased from Suzhou JOINN Laboratory Animal Co., Ltd.) were randomly divided into groups based on weight, with 3 mice per group. The mice were fasted with water ad libitum for 12 to 14 hours one day before test-article administration and fed 4 hours after the administration. The route of administration was intraperitoneal (IP), with a dosing concentration of 1 mg/mL, and a solvent formulation of 10% DMSO+90% saline.
(§3) Sample collection: 0.1 mL of blood was collected from the orbit under isoflurane anesthesia before and after test-article administration, transferred to EDTA K2 tubes, and placed on an ice bath. The samples were centrifuged at 5000 rpm for 10 minutes at 4° C., and the plasma was collected. […] Prior to analysis, all plasma samples were stored at −80° C.
(§4) Data processing: Drug concentrations in plasma and brain tissues were measured using LC-MS (API4000QTRAP triple quadrupole tandem mass spectrometer, equipped with an electrospray ionization source (ESI)). The data collection and control system software utilized was Analyst 1.5.1 (Applied Biosystems). The sample peak integration in the spectrum was conducted automatically; the ratio of the sample peak area to the internal standard peak area was used as an indicator to perform regression with the concentration of the sample. Regression method: Linear regression with a weighting factor of 1/X^2. Pharmacokinetic parameters were analyzed using a non-compartmental model in WinNonlin Professional v6.3 (Pharsight, USA). Cmax is the measured maximum plasma concentration, the area under the plasma concentration-time curve (AUC(0→0)) was calculated by the trapezoidal method, and Tmax is the time to reach peak plasma concentration after administration. Experimental data are presented as “Mean±Standard Deviation” (Mean±SD, n≥3) or “Mean” (n=2).

[4] = system: head-twitch response in mice; type: in vivo, C57BL/6J mice; conditions: intraperitoneal, at all doses tested, first 30 minutes
Source text: Method: The head-twitch response in mice was detected via oscillatory signals to characterize hallucinogenic effects. Mice (strain C57BL/6J, purchased from Shanghai Lingchang Biotech Co., Ltd.) were anesthetized with 2% isoflurane. A small portion of the scalp was removed from the center of the dorsal cranium. A custom-made small neodymium magnet (4 mm×4 mm×2 mm) was attached to the center of the dorsal cranium using dental resin. The magnet N-S poles were kept parallel to the dorsoventral aspect of the implant. The mice were allowed to recover for 1 week before testing. To record precise head movements, the mice were placed in a glass beaker with a diameter of 12 cm, surrounded by 150 turns of #30 enameled copper wire. The output signal from the coil was recorded using a PowerLab/4SP instrument installed with LabChart V8.1.16 software. Coil voltage was amplified, low-pass filtered at 10 kHz to remove radio frequency interference, and sampled at 40 kHz. For the detection of head-twitch response in mice, LabChart data were processed with a digital band-pass filter at 40 to 200 Hz. The head-twitch response in mice was identified by searching for sinusoidal wavelets that met the following criteria: 1) containing more than two bipolar peaks; 2) amplitude exceeding background noise level; 3) duration less than 120 milliseconds. 1 hour prior to the test, the mice were transferred to the test room for acclimatization. Subsequently, the mice were placed in the beaker for 30 minutes, and baseline head-twitch response values were recorded. Immediately after baseline recording, the mice were injected intraperitoneally with the test compound, and head-twitch response values were recorded for 1 to 2 hours post-dose, depending on the compound used. Statistical values were taken from the first 30 minutes.

[5] = for AUMC0-inf / AUMC0-t / Kel: mice
Experimental: as §1, §2, §3, §4

[6] = system: corticosterone-exposed mice; assay: tail suspension test after 21 days of corticosterone exposure; type: in vivo, Male C57BL/6 mice
Experimental: Antidepressant efficacy test method: Male C57BL/6 mice (8 weeks old, purchased from Shanghai Lingchang Biotech Co., Ltd.) were administered a solution of corticosterone in their drinking water at a concentration of 25 μg/mL using drinking water bottles for 21 days. Mice were maintained on a 12-hour light cycle. Corticosterone-containing drinking water was refreshed every other day for the first two weeks, and gradually replaced with corticosterone-free drinking water every two days for the last week. […] TST procedure: mice in the control group and the administration group were suspended by their tails with tape for 6 minutes, and their behavior was recorded by a video camera. The immobility time during the last 4 minutes was manually timed and assessed by an observer who was unaware of the treatment conditions.

[7] = target: dopamine D2 receptor (Homo sapiens (Human), UniProt P14416); assay: radioligand competitive binding assay, [3H]-Methylspiperone, 293T membranes; conditions: affinity for the dopamine D2 receptor
Experimental: Method: The affinity of the compounds of the present disclosure for the dopamine D2 receptor was determined using a radioligand competitive binding assay as follows. In the first step, a cell membrane component containing dopamine D2 receptor was prepared. […] 48 hours post-transfection, the 10 cm culture dish was taken out from the cell incubator and the cultured cells had expressed the dopamine D2 receptor. The culture medium was aspirated using a vacuum pump, and 3 mL of lysis buffer was added to each culture dish. The cells were then placed in a cold room at 4° C. for 10 minutes. After the cells were detached, they were transferred to a 15 mL centrifuge tube and centrifuged at 1500 rpm for 5 minutes at 4° C., and the supernatant was discarded. The cell pellet was transferred to a tissue homogenizer, and 3 mL of lysis buffer was added. Sufficient grinding was applied to break the cells. The cell suspension was then equally aliquoted into several Eppendorf tubes and centrifuged at 12000 rpm for 5 minutes at 4° C., and the supernatant was discarded. The resulting precipitate was the cell membrane component containing the dopamine D2 receptor. […] The machine readout value reflected the amount of [3H]-Methylspiperone bound on the membrane, and after further data processing, the affinity Ki values of different compounds for the dopamine D2 receptor were obtained.

[8] = affinity for the 5-HT2A receptor, [3H]-LSD
[9] = first value of cell, NA = no agonistic activity, read-out: Gq signaling agonistic activity (potency)
[10] = first value of cell, NA = no agonistic activity, read-out: β-arrestin2 signaling agonistic activity (potency)

T1 sequence (P28223 whole entry): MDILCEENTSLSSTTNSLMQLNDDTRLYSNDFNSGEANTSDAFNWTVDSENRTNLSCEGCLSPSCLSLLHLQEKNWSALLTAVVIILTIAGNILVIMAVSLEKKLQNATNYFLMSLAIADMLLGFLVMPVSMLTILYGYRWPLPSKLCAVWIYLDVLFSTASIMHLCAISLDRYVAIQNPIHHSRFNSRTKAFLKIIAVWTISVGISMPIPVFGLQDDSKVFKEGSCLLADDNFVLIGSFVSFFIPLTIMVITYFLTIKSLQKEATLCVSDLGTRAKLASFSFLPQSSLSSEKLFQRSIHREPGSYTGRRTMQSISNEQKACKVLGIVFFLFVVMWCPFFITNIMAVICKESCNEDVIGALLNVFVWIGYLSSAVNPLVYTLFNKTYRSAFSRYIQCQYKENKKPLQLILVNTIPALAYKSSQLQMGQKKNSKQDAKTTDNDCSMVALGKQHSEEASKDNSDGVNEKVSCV
dopamine D2 receptor, sequence (P14416 whole entry, species assumed): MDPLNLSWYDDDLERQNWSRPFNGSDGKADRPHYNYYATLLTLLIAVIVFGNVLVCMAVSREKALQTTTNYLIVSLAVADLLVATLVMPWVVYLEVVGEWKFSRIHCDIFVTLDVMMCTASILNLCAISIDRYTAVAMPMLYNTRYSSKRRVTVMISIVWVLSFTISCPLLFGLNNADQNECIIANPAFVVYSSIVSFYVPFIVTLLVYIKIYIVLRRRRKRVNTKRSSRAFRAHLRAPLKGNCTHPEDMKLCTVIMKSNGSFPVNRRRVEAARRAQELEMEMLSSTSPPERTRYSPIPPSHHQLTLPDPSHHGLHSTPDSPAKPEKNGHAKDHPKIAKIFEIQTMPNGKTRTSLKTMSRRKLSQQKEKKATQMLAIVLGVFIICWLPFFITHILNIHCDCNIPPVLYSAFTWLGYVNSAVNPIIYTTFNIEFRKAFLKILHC

COc1ccc(CCN2CC[C@H]3[C@@H](C2)c2cccc4c2N3CCN4C)cc1 [Compound I-5]
EC50 [1]: 684 nM
Emax [1]: 3.2%

COc1ccc(OC)c(CCN2CC[C@H]3[C@@H](C2)c2cccc4c2N3CCN4C)c1 [Compound I-8, (6bR,10aS)-8-(2,5-dimethoxy)-3-methyl-2,3,6b,7,8,9,10,10a-octahydro-1H-pyrido[3′,4′:4,5]pyrrolo[1,2,3-de]quinoxaline]
Ki [2, 8]: 3060 nM

CN1CCN2c3c(cccc31)[C@@H]1CN(Cc3ccccc3O)CC[C@@H]12 [Compound I-2]
Emax [1]: 68.4%
EC50 [1, 9]: 309 nM
EC50 [1, 10]: 229 nM
Gq signaling agonistic activity (percentage in parentheses) [1]: 65.3%

COc1ccccc1CCCN1CC[C@@H]2[C@H](C1)c1cccc3c1N2CCC3 (single isomer, unassigned) [Compound I-19]
EC50 [1]: 562 nM
Emax [1]: 59.4%
pathway selectivity: β-arrestin2 recruitment versus G protein signaling [1]: selectively activate the recruitment of β-arrestin2
Ki [2]: < 100 nM
Ki [2, 8]: 18 nM

COc1ccccc1CCCN1CC[C@@H]2[C@H](C1)c1cccc3c1N2CCO3 (single isomer, unassigned) [Compound I-23]
AUC0-t ([3]; 5 mg/kg): 537 ng·h/mL
Cmax ([3]; 5 mg/kg): 272 ng/mL and 1420 ng/g
Tmax ([3]; 5 mg/kg): 0.5 h
MRT ([3]; 5 mg/kg): 1.47 h
half-life ([3]; 5 mg/kg, T1/2, brain, 5 mg/kg IP, mice): 1.1 h
half-life ([3]; 5 mg/kg, T1/2, plasma, 5 mg/kg IP, mice): 1.02 h
hallucinogenic effects (head-twitch response) [4]: did not induce hallucinogenic effects
AUMC0-inf ([5]; brain, 5 mg/kg IP): 1698 h · h · ng · g^−1
AUMC0-t ([5]; brain, 5 mg/kg IP): 1645 h · h · ng · g^−1
Kel ([5]; brain, 5 mg/kg IP): 0.630 h⁻¹
MRT ([5]; male, C57, mouse, in vivo, ip, 5 mg/kg): 0.932 h
AUC0-t ([5]; mouse, in vivo, ip, 5 mg/kg): 1816 ng·h/g
AUMC0-inf ([5]; plasma, 5 mg/kg IP): 794 h · h · ng · mL^−1
AUMC0-t ([5]; plasma, 5 mg/kg IP): 769 h · h · ng · mL^−1
Kel ([5]; plasma, 5 mg/kg IP): 0.678 h⁻¹
antidepressant effect in the mouse tail suspension test ([6]; 10 mg/kg single-injection group, after 7 days): remained significant
antidepressant effect in the mouse tail suspension test ([6]; 10 mg/kg single-injection group, after 14 days): remained significant
antidepressant effect in the mouse tail suspension test ([6]; one day after a single administration): significant antidepressant effect

COc1ccccc1CCN1CC[C@@H]2[C@H](C1)c1cccc3c1N2CCCN3C (single isomer, unassigned) [Compound I-13]
EC50 [1]: 181 nM
Emax [1]: 51.4%
pathway selectivity: β-arrestin2 recruitment versus G protein signaling [1]: selectively activate the recruitment of β-arrestin2
Ki [2]: < 100 nM
Ki [2, 8]: 34 nM

COc1ccccc1CCCN1CC[C@H]2[C@@H](C1)c1cccc3c1N2CCC3 (single isomer, unassigned) [Compound I-18, 10-(3-(2-methoxyphenyl)propyl)-5,6,7a,8,9,10,11,11a-octahydro-4H-pyrido[3′,4′:4,5]pyrrolo[3,2,1-i]quinoline]
Ki [2]: < 100 nM

COc1ccccc1CCN1CC[C@H]2[C@@H](C1)c1cccc3c1N2CCN3C [Compound I-3]
Ki [7]: 1550 nM
hallucinogenic effects (head-twitch response) [4]: did not induce hallucinogenic effects
Emax [1]: 39%
Gq signaling agonistic activity (percentage in parentheses) [1]: 20.2%
Ki [2]: < 100 nM

COc1ccccc1CCCN1CC[C@@H]2[C@H](C1)c1cccc3c1N2CCCN3C (single isomer, unassigned) [Compound I-15]
EC50 [1]: 97.2 nM
Emax [1]: 24.3%
Ki [2]: < 100 nM

CN1CCN2c3c(cccc31)[C@@H]1CN(CCCc3ccccc3O)CC[C@@H]12 [Compound I-11, 2-(3-((6bR,10aS)-3-methyl-2,3,6b,9,10,10a-hexahydro-1H-pyrido[3′,4′:4,5]pyrrolo[1,2,3-de]quinoxalin-8(7H)-yl)propyl)phenol]
Emax [1]: 36.8%
Gq signaling agonistic activity (percentage in parentheses) [1]: 9.7%
Ki [2]: < 100 nM
Ki [2, 8]: 89 nM

COc1ccccc1CN1CC[C@H]2[C@@H](C1)c1cccc3c1N2CCN3C [Compound I-1]
Emax [1]: 60.2%
EC50 [1, 9]: 120 nM
EC50 [1, 10]: 174 nM
Gq signaling agonistic activity (percentage in parentheses) [1]: 67.0%

COc1ccccc1CCCN1CC[C@H]2[C@@H](C1)c1cccc3c1N2CCCS3 (single isomer, unassigned) [Compound I-26]
Ki [2]: < 100 nM
Ki [2, 8]: 93 nM

COc1ccccc1CCCN1CC[C@@H]2[C@H](C1)c1cccc3c1N2CCCS3 [Compound I-27, (8aR,12aS)-11-(3-(2-methoxyphenyl)propyl)-6,7,8a,9,10,11,12,12a-octahydro-5H-pyrido[4,3-b][1,4]thiazepino[2,3,4-hi]indole]
EC50 [1]: 878 nM
Emax [1]: 35.7%
pathway selectivity: β-arrestin2 recruitment versus G protein signaling [1]: selectively activate the recruitment of β-arrestin2
Ki [2]: < 100 nM
Ki [2, 8]: 8 nM

COc1ccccc1CCCN1CC[C@H]2[C@@H](C1)c1cccc3c1N2CCCN3C (single isomer, unassigned) [Compound I-14]
Ki [2]: < 100 nM

CN1CCN2c3c(cccc31)[C@@H]1CN(CCc3ccccc3O)CC[C@@H]12 [Compound I-9, 2-(2-((6bR,10aS)-3-methyl-2,3,6b,9,10,10a-hexahydro-1H-pyrido[3′,4′:4,5]pyrrolo[1,2,3-de]quinoxalin-8(7H)-yl)ethyl)phenol]
EC50 [1]: 75.9 nM
Emax [1]: 14.4%
Ki [2]: < 100 nM
Ki [2, 8]: 31 nM

COc1cccc(CCN2CC[C@H]3[C@@H](C2)c2cccc4c2N3CCN4C)c1 [Compound I-4]
Emax [1]: 44.2%
Gq signaling agonistic activity (percentage in parentheses) [1]: 13.7%
Ki [2]: < 100 nM

COc1ccccc1CCN1CC[C@H]2[C@@H](C1)c1cccc3c1N2CCCN3C (single isomer, unassigned) [Compound I-12]
Ki [2]: < 100 nM
Ki [2, 8]: 190 nM

COc1ccccc1CCCN1CC[C@H]2[C@@H](C1)c1cccc3c1N2CCN3C [Compound I-10]
Ki [7]: 1860 nM
AUC0-inf ([3]; 10 mg/kg): 582 ng·h/mL
AUC0-t ([3]; 10 mg/kg): 576 ng·h/mL
Cmax ([3]; 10 mg/kg): 225 ng/mL and 566 ng/g
MRT ([3]; 10 mg/kg, brain, 10 mg/kg IP, mice): 1.53 h
MRT ([3]; 10 mg/kg, plasma, 10 mg/kg IP, mice): 2.11 h
half-life ([3]; 10 mg/kg, T1/2, brain, 10 mg/kg IP, mice): 0.801 h
half-life ([3]; 10 mg/kg, T1/2, plasma, 10 mg/kg IP, mice): 1.06 h
Tmax ([3]; 10 mg/kg, tmax, brain, 10 mg/kg IP, mice): 0.5 h
Tmax ([3]; 10 mg/kg, tmax, plasma, 10 mg/kg IP, mice): 0.083 h
hallucinogenic effects (head-twitch response) [4]: did not induce hallucinogenic effects
EC50 [1]: 204 nM
Emax [1]: 12.7%
AUMC0-inf ([5]; brain, 10 mg/kg IP): 2054 h · h · ng · g^−1
AUMC0-t ([5]; brain, 10 mg/kg IP): 1979 h · h · ng · g^−1
Kel ([5]; brain, 10 mg/kg IP): 0.865 h⁻¹
AUC0-inf ([5]; mouse, in vivo, ip, 10 mg/kg): 1346 ng·h/g
AUC0-t ([5]; mouse, in vivo, ip, 10 mg/kg): 1335 ng·h/g
AUMC0-inf ([5]; plasma, 10 mg/kg IP): 1230 h · h · ng · mL^−1
AUMC0-t ([5]; plasma, 10 mg/kg IP): 1169 h · h · ng · mL^−1
Kel ([5]; plasma, 10 mg/kg IP): 0.654 h⁻¹
Ki [2]: < 100 nM
